Results on three molecules are retold here after US10711000B2 (Fronthera U.S. Pharmaceuticals LLC, priority 2018, dated 2020).

Where two headings read alike, the source gives them in different places. A value given as a limit tells only on which side of the number the result lay.

This experiment has as its target T1, Autotaxin (Homo sapiens, UniProt Q13822).
T1 construct: from tissue; host or cells: pooled human plasma
Briefly: LPA formation in pooled human plasma (ex vivo autotaxin inhibition). It is filed as biochemical. The settings on record: 2 hours incubation. The method in brief: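 Pooled human plasma incubated 2 h with various compound concentrations; LPA 18:2 and 20:4 quantified by LC/MS/MS (negative-ion MRM, LPA17:0 internal standard) after butanol extraction. Inhibition of LPA formation relative to untreated plasma; IC50 by non-linear regression.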

[1] abbreviates: LPA 18:2 by LC/MS/MS, read-out: LPA formation (18:2) (IC50).
The mark [2] stands for this setting: LPA 20:4 by LC/MS/MS, read-out: LPA formation (20:4) (IC50).

Regarding `CCn1nc2ncc(N3CC4(CN(C(=O)C5CCOCC5)C4)C3)cc2c1N(C)c1nc(-c2ccc(F)cc2)c(C#N)s1` [Compound 118, 2-((2-ethyl-5-(6-(tetrahydro-2H-pyran-4-carbonyl)-2,6-diazaspiro[3.3]heptan-2-yl)-2H-pyrazolo[3,4-b]pyridin-3-yl)(methyl)amino)-4-(4-fluorophenyl)thiazole-5-carbonitrile], the IC50 (as a rule, the midpoint of a concentration-inhibition curve) reads like this: under setting [1], no more than 100 nM; under setting [2], no more than 100 nM.

Take `CCc1nn2cc(F)c(N3CCN(CC(=O)N4CC(O)C4)CC3)cc2c1N(C)c1nc(-c2ccc(F)cc2)c(C#N)s1` [Example 101, 2-[[2-ethyl-6-fluoro-5-[4-[2-(3-hydroxyazetidin-1-yl)-2-oxo-ethyl]piperazin-1-yl]pyrazolo[1,5-a]pyridin-3-yl]-methyl-amino]-4-(4-fluorophenyl)thiazole-5-carbonitrile]: the IC50 by setting is: under setting [1], no more than 100 nM; under setting [2], no more than 100 nM.

On to `CCc1nn2cc(F)c(N3CC4(CN(C(=O)[C@H]5CCOC5)C4)C3)cc2c1N(C)c1nc(-c2ccc(F)cc2)c(C#N)s1` [Example 102, 2-[[2-ethyl-6-fluoro-5-[2-[(3S)-tetrahydrofuran-3-carbonyl]-2,6-diazaspiro[3.3]heptan-6-yl]pyrazolo[1,5-a]pyridin-3-yl]-methyl-amino]-4-(4-fluorophenyl)thiazole-5-carbonitrile], for which the IC50 under setting [1] was no more than 100 nM and the IC50 under setting [2] was no more than 100 nM.
